From patent US20230158105A1, “Compositions and uses of Oligo-chromopeptides and methods of making” (JDS Therapeutics, LLC, priority 2021, published 2023) come the findings set out here.

Marks after values point to notes of the source that are not given here.

Data set [1] has as its system corticosterone (CORT) induced aging rats. As to the kind of experiment: CORT-induced aging rats: body weight, serum and liver biochemistry, liver telomere length. In kind it is in vivo, Wistar rats. As to conditions: oral gavage daily 21 days, O-CP30/O-CP300 = 30/300 mg HED, NR 300 mg HED, mean ± SD. The procedure:
Wistar rats (n=7 in each group; 8 weeks old) were used and animals were reared at the temperature of (22±2° C.), humidity (55±5%) and a 12/12 hour light/dark cycle. Pellet food and water were provided ad libitum. The experiment was conducted under the protocol approved by Firat University. Two control groups were taken for studies. The normal control group was given phosphate-buffered saline (PBS) and the CORT control was given corticosterone (CORT). Doses of O-CPs and NR were determined based on the Human Equivalent Dose (HED) for Drug Development according to Shin et al. (2010). Conversion of human doses to animal doses was based on body surface area. A conversion factor of 6.17 was used to convert human doses to rat doses. The human equivalent dose was 30 mg and 300 mg for O-CPs and 300 mg for nicotinamide riboside. CORT (Sigma-Aldrich Co., St. Louis, Mo., USA) was suspended in saline with 0.1% Tween 80% and 0.2% DMSO. Rats in groups 2-7 were injected daily with CORT (40 mg/kg) subcutaneously for 21 consecutive days. All injections were performed in a volume of 2 ml/kg body weight, between 7:00 and 7:10 p.m. The rats were dosed with study product involving various dosages of O-CPs, NR and their combination by oral gavage, which was administered daily for 21 days. Serum levels of glucose, triglycerides, cholesterol, aspartate aminotransferase (AST), alanine aminotransferase (ALT), urea, and creatinine were analyzed with a portable automated chemistry analyzer (Samsung LABGEO PT10, Samsung Electronics Co., Suwon, Korea). Total serum CORT levels, and levels of nicotinamide adenine dinucleotide (NAD+) and NAD+ precursors such as nicotinamide (Nam), tryptophan (Trp), nicotinic acid (Na) and nicotinamide mononucleotide (NMN) and NADPH were measured […] using a commercial kit following the manufacturer's instructions by ELISA (Elx-800, Bio-Tek Instruments Inc, Vermont, USA). Telomere length in the liver was determined by qPCR. Telomerase activity was measured according to the telomerase repeat amplification protocol using a Trapeze kit (Chemicon/Millipore, Billerica, Mass.). The levels of glutathione (GSH) and reactive oxygen species (ROS) in the rat liver were determined using the corresponding commercial ELISA kits (Wako Pure Chemical Industries) according to the manufacturer's instructions. Serum levels of malondialdehyde (MDA) were analyzed by High Performance Liquid Chromatography (HPLC). Antioxidant enzymes [superoxide dismutase (SOD), catalase (CAT), glutathione peroxidase (GSHPx)] were measured using the relevant commercial kits according to the enzyme-linked immunosorbent assay (ELISA, Elx-800, Bio-Tek Instruments Inc, Vermont, USA) method. The samples size of the study was determined to be totally 49 rats (n=7; 7 groups) with the help of G*Power package program (Version 3.1.9.2) with alpha error 0.05 and 90% power with effect size 0.7 calculated from previous studies. The data was analyzed using statistical analysis software (SPSS 17.0). In this study, conformity to the assumption of normality from the prerequisites of the parametric tests was performed using the “Shapiro-Wilk” test and the homogeneity of the variances were checked with the “Levene” test. Analysis of variance (ANOVA) test was performed to determine the differences between the groups and post-hoc Tukey test was used for multiple comparisons of the groups. Statistical significance was accepted as P<0.05.

The subject of data set [2] is LPS-induced pyrexia in mice. The experiment in a line: LPS-induced pyrexia in mice: serum biochemistry, liver and lung antioxidant enzymes, pyrexia. The class given is in vivo, BALB/c mice. The following applies: oral, 2 weeks before LPS, HED Se 200 μg, Zn 30 mg, O-CPs 300 mg, mean ± SD; for ALP / ALT / AST / BUN / Creatine / LDH / T Bilirubin: serum. The procedure: Six-week-old male BALB/c mice was purchased from the Firat University Experimental Animal Center. All mice were ad libitum access to standard rodent chow and water during the study. Mice were housed in cages throughout the study. The following conditions were maintained: temperature, 22±2° C.; relative humidity, 55±5%; and a 12-hours light: dark cycle. The care and treatment of the animals were in accordance with the guidelines established by the Use of Laboratory Animals and were approved by the Animal Care and Use Committee of Firat University. Two control groups were taken for studies. The normal control group was given PBS and the other control was given lipopolysaccharides (LPS) along with a vehicle, i.e., phosphate buffered saline. Forty-two mice were randomly divided into 6 treatment groups with 7 mice in each group as follows: Selenomethionine, zinc picolinate and O-CPs or vehicle were orally administered 2 weeks before LPS treatment. Control mice received 50 μL of PBS. Subsequently, rats in Groups 2 through 6 received LPS (0.04 mg/kg i.p.) 30 min after active treatment with Se, ZnPic, and O-CPs. Basal temperature readings for all treatments and LPS injections were done between 8.00 and 9.00 GMT to avoid temperature differences due to circadian rhythm. The change in rectal temperature in all rats were recorded 30 min after PBS or LPS injection and at subsequent 30 min intervals for 4 hours. After 6 hours of LPS treatment, the mice were euthanized and their blood, liver and lungs were collected for further analysis. Doses of selenomethionine, zinc picolinate and O-CPs were determined based on the Human Equivalent Dose (HED) for Drug Development according to Shin et al. (2010). Conversion of human doses to animal doses were based on body surface area. A conversion factor of 12.33 was used to convert human doses to mouse doses. The human equivalent dose was 200 μg of selenium (Se) from selenomethionine, 30 mg of zinc (Zn) from zinc picolinate and 300 mg of O-CPs. Selenomethionine dose: 200 μg/70 kg=2.86 μg/kg/day human*12.33=35.23 μg/kg/day per mouse; Zinc picolinate (20%) dose: 30 mg/70 kg=0.428 mg/kg/day human*12.33=5.28 elemental zinc mg/kg/day mouse=5.28*100/20=26.4 mg/kg/day per mouse; O-CPs dose: 300 mg/70 kg=4.29 mg/kg/day human*12.33=52.84 mg/kg/day per mouse. Serum levels of glucose, triglycerides, cholesterol, aspartate aminotransferase (AST), alanine aminotransferase (ALT), urea, and creatinine were analyzed with a portable automated chemistry analyzer (Samsung LABGEO PT10, Samsung Electronics Co., Suwon, Korea). Serum levels of MDA were analyzed by HPLC. Antioxidant enzymes (SOD, CAT, GSHPx) were measured using the relevant commercial kits according to the enzyme-linked immunosorbent assay (ELISA, Elx-800, Bio-Tek Instruments Inc, Vermont, USA) method. Serum, zinc and selenium levels in liver and lung were detected by atomic absorption spectroscopy (AAS). The samples size of the study was 42 mice (n=7; 6 groups) and analyzed with the help of G*Power package program (Version 3.1.9.2) with alpha error 0.05 and 85% power with effect size 0.65 calculated from previous studies. The data was analyzed using statistical analysis software (SPSS 17.0). In this study, conformity to the assumption of normality from the prerequisites of the parametric tests was performed using the “Shapiro-Wilk” test and the homogeneity of the variances were checked with the “Levene” test. Analysis of variance (ANOVA) test was performed to determine the differences between the groups and post-hoc Tukey test was used for multiple comparisons of the groups. Statistical significance was accepted as P<0.05.

As to `NC(=O)c1ccc[n+]([C@@H]2O[C@H](CO)[C@@H](O)[C@H]2O)c1` [NR, nicotinamide riboside], in data set [1] (liver), the “Liver GSH” value is recorded as 33.25 ± 2.07^bc U/mg protein, the “Liver NADPH” value is 44.42 ± 2.31^c nmol/g, the “Liver Nicotinamide (Nam)” value is 1.60 ± 0.06^c μmol/g and the “Liver Nicotinamide adenine dinucleotide NAD+” value was 0.59 ± 0.04^c μmol/g. In data set [1] (liver), the “Liver Nicotinamide mono nucleotide (NMN)” value is listed as 0.30 ± 0.02^bc μmol/g and the “Liver Nicotinic acid (Na)” value is listed as 1.63 ± 0.09^abc μmol/g. Besides, in data set [1], the CORT is reported as 102.16 ± 8.68^a ng/ml and the “Final Body Weight” value is listed as 222.86 ± 23.11^b g. Besides, the GLU in data set [1] (serum glucose) is reported as 119.86 ± 7.10^ab mg/dl. Moreover, in data set [1] (serum), the ALT is given as 98.00 ± 5.55 U/L, the AST is 114.71 ± 10.92 U/L, the BUN came to 22.90 ± 1.87 mg/dL and the CAT is on record as 114.69 ± 4.82^d U/ml. Besides, in data set [1] (serum), the Creatine is reported as 0.37 ± 0.08, the GSH-Px is 26.28 ± 1.98^d U/ml, the MDA was 1.74 ± 0.07^b nmol/ml and the SOD is 61.36 ± 4.5^e U/ml.

For `C[Se]CC[C@H](N)C(=O)O` [Se, selenomethionine], in data set [2], the “Liver, CAT” value is listed as 41.89 ± 4.03^c U/mg; the “Liver, GSHPx” value is 44.79 ± 3.86^c U/mg; the “Liver, MDA” value is reported as 5.86 ± 0.26^b nmol/mL; the “Liver, SOD” value is reported as 95.16 ± 5.06^b U/mg. Also, in data set [2], the “Lung, CAT” value was 32.29 ± 1.86^b U/mg; the “Lung, GSHPx” value was 33.86 ± 3.41^b U/mg; the “Lung, MDA” value is 6.67 ± 0.49^b nmol/mL; the “Lung, SOD” value is reported as 59.32 ± 4.81^b U/mg. For the same compound, in data set [2], the ALP is reported as 285.43 ± 10.33^b IU/L, the ALT is 261.57 ± 16.16^bc IU/L, the AST is listed as 573.43 ± 59.23^b IU/L and the BUN was 34.36 ± 3.26^b mg/dL. Further, in data set [2], the Creatine is on record as 0.59 ± 0.08^ab mg/dL, the LDH is 192.11 ± 10.72^c IU/L and the “T Bilirubin” value is on record as 0.95 ± 0.08^b mg/dL.

Take zinc picolinate [Zn]: in data set [2], the “Liver, CAT” value is on record as 43.06 ± 3.24^c U/mg; the “Liver, GSHPx” value is on record as 36.86 ± 1.98^d U/mg; the “Liver, MDA” value was 5.92 ± 0.35^b nmol/mL; the “Liver, SOD” value was 75.94 ± 5.93^c U/mg. Besides, in data set [2], the “Lung, CAT” value is 28.53 ± 1.70^c U/mg; the “Lung, GSHPx” value is 28.08 ± 1.98^c U/mg; the “Lung, MDA” value is 6.83 ± 0.30^b nmol/mL; the “Lung, SOD” value is 50.36 ± 2.93^c U/mg. In addition, in data set [2], the ALP was 292.71 ± 15.34^ab IU/L, the ALT was 280.43 ± 8.85^b IU/L, the AST is 580.86 ± 32.61^b IU/L and the BUN is given as 35.57 ± 3.20^ab mg/dL. For the same compound, in data set [2], the Creatine is given as 0.59 ± 0.06^ab mg/dL, the LDH is 216.13 ± 11.39^b IU/L and the “T Bilirubin” value was 0.97 ± 0.08^b mg/dL.
